{"source": "patent US20260242390A1", "about": "“TOTAL SYNTHESES OF PORTIMINE A AND ANALOGUES THEREOF AS SMALL MOLECULE MODULATORS OF NMD3” (priority 2023, published 2026)", "key": {"[1]": {"system": "human T-cell acute lymphoblastic leukaemia (T-ALL) cell lines", "settings": "cited from earlier work"}, "[2]": {"system": "normal murine haematopoietic cells", "settings": "cited from earlier work"}, "Jurkat cells": {"system": "Jurkat cells", "test": "Initial SAR: activity of PAL functionalized PTMA analogs", "format": "cell-based, human", "settings": "in the concentrate range", "description": "FIG. 3. Initial SAR studies: Assessing activity of PAL functionalized PTMA analogs. […] (A) PA and Ph-PA show less toxic to healthy PBMCs compared to Jurkat cells. […] (B) Immunoblot of caspase-3 in Jurkat and PBMCs with indicated conditions.\n• 1) Portimine A and its functional analogs show stereo-selective acute toxicity in cancer cells (FIG. 1). […] (B) Structure of portimine related analogs: phenyl-portimine A (Ph-PA, 36) and epi-portimine A (ePA, 38). Structure of fully functionalized portimine A-based epimeric probe pair: portimine A-diazirine-alkyne (PA-DA, 35-2) and epi-portimine A-diazirine-alkyne (ePA-DA, 35-1). (C) Cell viability analysis of portimine A and analogs. Jurkat cells were treated with increasing concentrations of portimine A and analogs for 24 hours. All presented data as mean of biological replicated experiments (n=3). […] Jurkat cells were treated with portimine A or analogs for 12 hours at 10 nM. […] Structurally related negative control ePA and PB are non-toxic in all cell types in the current concentrate range. PBMCs (25k per well), Jurkat (10k per well). […] Cell cycle analysis in Jurkat cells (FIG. 2). Jurkat cells were treated with 10 nM of indicated compounds for 24 hours, and propodium iodide was used to identify different stages of cells by flow cytometry. […] (A) PA and Ph-PA show less toxic to healthy PBMCs compared to Jurkat cells. […] (B) Immunoblot of caspase-3 in Jurkat and PBMCs with indicated conditions. […] (A) Pharmacokinetic studies of mouse intraperitoneal (i.p.) and oral (p.o.) administration for portimine (n=3). […] Impact of PA [0.3 or 1 mg/kg intraperitoneally] on MC38 tumor growth in WT mice (n=6). (C) Kaplan-Myer survival curve of WT MC38 tumor-bearing mice (n=6) after treatment with PA as described in (D). Mice were euthanized when tumor area exceeded 2000 mm^3. Statistical analysis was performed using ANOVA analysis followed by multiple comparisons test, * p≤0.05. Treatment condition: Jurkat (60 M per condition); PA-DA/ePA-DA concentration: 0.5 uM, PA or ePA: 5 uM; Incubate with probe with or without competitors (PA, ePA) for 30 min; UV irradiated for 20 min. (0.5 uM PA-DA add a no-UV condition), Standard pulldown & biotin-enrichment and western blot analysis (Elute condition: 2× sample buffer+500 uM biotin, boil for 20 mins); Primary antibody NMD3 (ProteinTech, 1:150), Actin (BioRad, 1:10000). […] Cell lysates were fractionated by sucrose gradient (5-50%) and each fraction were analyzed by western blot. eIF6 levels increase in 60S subunit fraction and decrease in ribosome-free fractions after PA treatment. […]"}}}
{"smiles": "O=C(/C=C\\n1cnc(-c2cc(C(F)(F)F)cc(C(F)(F)F)c2)n1)NNc1cnccn1", "note": "[KPT-330]", "values": [{"measurement": "apoptosis in a panel of 14 human T-ALL cell lines", "setting": "[1]", "value": "induced rapid apoptosis at low nanomolar concentrations"}, {"measurement": "toxicity to normal murine haematopoietic cells", "setting": "[2]", "value": "little toxicity"}]}
{"smiles": "CC(=O)O[C@@H]1CC(C)[C@@H]2CC[C@@]3(C[C@@H](O)C4=NCC[C@@]45CCC(c4ccc(C(=O)NCCC6(CCC#N)N=N6)cc4)=C[C@@H]5[C@H](O3)C1=O)O2", "note": "(stereo partly drawn) [epi-PTMA-Ac-DA]", "values": [{"measurement": "activity of PAL functionalized PTMA analogs", "setting": "Jurkat cells", "value": "no activity"}]}
